Laboratory results taken from paper PMC9474883, “Novel tricyclic small molecule inhibitors of Nicotinamide N-methyltransferase for the treatment of metabolic disorders” (Scientific Reports, 2022).
“And” between values parts separate entries of the source, which are not always exact repeats. Equal values may be shown once.

Key:
hNNMT [1] = target: T1, hNNMT (Homo sapiens, UniProt P40261); test: Fluorescence based NNMT enzymatic assay (human); format: biochemical; conditions: recombinant human NNMT, fluorescence of an MNA derivative; for IC50: read-out: hNNMT IC50
T1 sequence (P40261 1-264): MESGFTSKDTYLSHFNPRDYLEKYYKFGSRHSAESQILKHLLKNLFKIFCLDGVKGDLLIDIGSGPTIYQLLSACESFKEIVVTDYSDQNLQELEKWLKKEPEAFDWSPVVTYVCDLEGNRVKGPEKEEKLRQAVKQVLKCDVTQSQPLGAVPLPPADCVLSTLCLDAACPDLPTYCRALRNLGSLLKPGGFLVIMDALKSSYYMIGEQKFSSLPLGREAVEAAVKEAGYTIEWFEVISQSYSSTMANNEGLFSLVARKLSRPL
Experimental: (§1) NNMT activity was measured by a fluorescence based assay as previously described. Briefly, Inhibitors were screened using human, mouse and monkey NNMT enzymes at different concentrations. The final assay reaction mixture contained a buffer of 100 mM Tris Hcl pH 7.5, 0.04% BSA, 2 mM Dithiothreitol and 1% DMSO. A fluorescent product 2, 7- naphthyridine was measured in a Tecan reader with excitation at 375 nm and emission at 430 nm. The IC50 values were determined by fitting the inhibition curves (percent inhibition versus inhibitor concentration) using a four parametric sigmoidal dose response in graph pad prism.

NNMT = conditions: published NNMT inhibitor; cited from earlier work
mouse NNMT = target: T2, mouse NNMT (Mus musculus, UniProt O55239); test: Fluorescence based NNMT enzymatic assay (mouse); format: biochemical; conditions: recombinant mouse NNMT, fluorescence of an MNA derivative; read-out: mNNMT IC50
T2 sequence (O55239 1-264): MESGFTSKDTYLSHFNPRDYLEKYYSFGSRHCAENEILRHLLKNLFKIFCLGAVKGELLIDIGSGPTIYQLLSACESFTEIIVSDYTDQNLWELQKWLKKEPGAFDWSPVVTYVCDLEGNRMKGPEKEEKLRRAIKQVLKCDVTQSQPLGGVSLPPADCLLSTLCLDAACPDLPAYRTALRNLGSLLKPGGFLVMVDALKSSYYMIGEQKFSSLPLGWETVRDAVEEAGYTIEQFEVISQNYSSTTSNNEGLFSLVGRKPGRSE
Experimental: as §1

[2] = target: T3, endogenous NNMT in U2OS cells (Homo sapiens, UniProt P40261); test: Cell based U2OS assay (endogenous NNMT, MNA by LC–MS/MS); conditions: 24 h treatment; for EC50: read-out: Cell based inhibition in U2OS EC50
T3 construct: endogenous in cells; host or cells: U2OS (human bone osteosarcoma)
T3 sequence (P40261 1-264): T1 sequence (P40261 1-264)
Experimental: (§2) As next steps, cellular assays using the human U2OS cell line were carried out. This assay, described in[6], measures inhibition of endogenous NNMT, without recombinant expression, by quantification of MNA via LC–MS/MS. […] EC50 values were higher by a factor of ~ 30 compared to IC50 values on the isolated recombinant hNNMT, probably reflecting low cell membrane permeability.
The cell based assay with Human bone osteosarcoma (U2OS) cell line was performed using procedures described before (6). Briefly, the cells were seeded into a 96 well cell culture plate followed by incubation for 24 h at 37 °C, 5% CO2, and 95% humidity. Cell culture media was replaced with 100 µl of medium/ inhibitor mixture at different concentrations and incubated for another 24 h. The cells were processed and […] of supernatant was transferred into 96 well plate (Costar 3364) and analyzed by LC–MS/MS. The IC50 values were determined by fitting the inhibition curves (percent inhibition versus inhibitor concentration) using a four parametric sigmoidal dose response graph pad prism.

[3] = system: NNMT (endogenous MNA levels); test: Determination of MNA in cells (Target engagement); format: cell-based, human; conditions: maximal MNA reduction relative to control without compound
Experimental: as §2

hNNMT [4] = target: T1, hNNMT; test: Thermal shift assay; conditions: for shift in melting temperature (Tm) in presence of SAM / shift in melting temperature (Tm) in presence of SAH: hNNMT; for shift in melting temperature (Tm) in presence of SAM: 5 uM SAM, 10 uM compound; for shift in melting temperature (Tm) in presence of SAH: enzyme:SAH:compound ~ 1:5:10 (1 uM protein, 5 uM SAH, 10 uM compound)
Experimental: Thermal shift assay was performed to assess the binding of tricyclic compounds [(6) = JBSNF-000028, (8) = JBSNF-000107] to hNNMT prior to co-crystallization studies.

| SMILES | IC50 (hNNMT [1]) | IC50 (mouse NNMT) [nM] | further results |
| --- | --- | --- | --- |
| CN1Cc2cccc3c2N(CC3)C1=O [(7), 2-methyl-1,2,5,6-tetrahydro-3H-pyrrolo[3,2,1-ij]quinazolin-3-one] | – | – | hNNMT IC50 (hNNMT [1]): inactive |
| CN1Cc2cccc3cccc(c23)C1=N [(24)] | > 10000 nM | – | – |
| N=c1sc2cccc3c2n1CCC3 [A] | 1600 nM | – | – |
| CCn1c(=N)n2c3c(cccc31)CCC2 [B] | 180 nM | – | – |
| CNc1ccc(C(N)=O)cn1 [Compound 28, 6-methylaminonicotinamide] | – | – | IC50 (NNMT): 590 nM |
| CN1Cc2cccc3c2N(CCC3)C1=N [Compound (1)] | 130 ± 80 nM | 180 ± 10 | Cell based inhibition in U2OS EC50 [2]: active; EC50 [2]: 2500 ± 300 nM; % MNA reduction [3]: 30% |
| CN1Cc2cc(F)cc3c2N(CCC3)C1=N [Compound (2)] | 59 ± 4 nM | 330 ± 130 | Cell based inhibition in U2OS EC50 [2]: active; EC50 [2]: 2200 ± 100 nM; % MNA reduction [3]: 21% |
| CN1Cc2c(F)c(F)cc3c2N(CCC3)C1=N [Compound (3)] | 200 nM and 190 nM | 1200 ± 750 | EC50 [2]: > 3000 nM; % MNA reduction [3]: 14% |
| CN1Cc2cncc3c2N(CCC3)C1=N [Compound (4)] | 360 ± 100 nM | 770 ± 40 | – |
| CN1Cc2cccc3c2N(CCCC3)C1=N [Compound (5)] | > 30000 nM | – | – |
| CN1Cc2cc(F)cc3c2N(CC3)C1=N [Compound (8)] | 38 nM and 39 nM | 1100 ± 500 | Tm in presence of SAH (hNNMT [4]; hNNMT 1 uM, SAH 5 uM, compound 10 uM, protein with SAH alone Tm=39°C): 50 °C; Tm in presence of SAM (hNNMT [4]; hNNMT 1 uM, SAM 5 uM, compound 10 uM, protein with SAM alone Tm=38°C): 41 °C; shift in melting temperature (Tm) in presence of SAM (hNNMT [4]; listed as JBSFN-107): up to 3 °C; shift in melting temperature (Tm) in presence of SAM (hNNMT [4]; listed as JBSNF-000107): ~ 3 °C; shift in melting temperature (Tm) in presence of SAH (hNNMT [4]; listed as JBSFN-107): up to 11 °C; shift in melting temperature (Tm) in presence of SAH (hNNMT [4]; listed as JBSNF-000107): ~ 10 °C; EC50 [2]: 1100 ± 200 nM; % MNA reduction [3]: 30% |
| Br.CN1Cc2c(F)c(F)cc3c2N(CC3)C1=N [Compound (9), 8,9-difluoro-2-methyl-1,2,5,6-tetrahydro-3H-pyrrolo[3,2,1-ij]quinazolin-3-imine hydrobromide] | 490 ± 40 nM | > 3000 | EC50 [2]: > 3000 nM; % MNA reduction [3]: 43% |
| CN1Cc2ccc(F)c3c2N(CC3)C1=N [Compound (11)] | > 1000 nM | – | – |
| CN1Cc2cccc3c2N(CCO3)C1=N [Compound (12)] | 180 ± 20 nM | 380 ± 20 | – |
| CN1Cc2cccc3c2N(CCS3)C1=N [Compound (13)] | 860 ± 60 nM | 200 ± 20 | EC50 [2]: > 10000 nM; % MNA reduction [3]: 40% |
| CN1Cc2cccc3c2N(CCN3C#N)C1=N [Compound (14)] | 250 ± 70 nM | 720 ± 70 | – |
| CC(=O)N1CCN2C(=N)N(C)Cc3cccc1c32 [Compound (15)] | > 30000 nM | – | – |
| CN1Cc2cccc3c2N(CCN3C)C1=N [Compound (16)] | > 30000 nM | – | – |
| CN(C)C(=O)N1CCN2C(=N)N(C)Cc3cccc1c32 [Compound (17)] | > 30000 nM | – | – |
| Br.CN1Cc2cc(F)cc3c2N(CCO3)C1=N [Compound (18)] | 69 ± 36 nM | > 3000 | EC50 [2]: 2500 ± 200 nM; % MNA reduction [3]: 30% |
| CN1Cc2cc(F)cc3c2N(CCN3C)C1=N [Compound (20)] | > 3000 nM | – | – |
| Br.N=C1N(CC(F)(F)F)Cc2cc(F)cc3c2N1CCO3 [Compound (21)] | > 30000 nM | – | hNNMT IC50 (hNNMT [1]): inactive |
| Br.N=C1N(CCCc2ccccc2F)Cc2cccc3c2N1CCO3 [Compound (22)] | > 30000 nM | – | hNNMT IC50 (hNNMT [1]): inactive |
| CN1Cc2cccc3ccn(c23)C1=N [Compound (23)] | > 30000 nM | – | – |
| CN1Cc2c3c(nn2C)CCCN3C1=N [Compound (25)] | > 30000 nM | – | – |
| CN1Cc2nn(C)c3c2N(CCC3)C1=N [Compound (26)] | > 30000 nM | – | – |
| CN1CCc2cccc3c2N(CC3)C1=N [Compound (27)] | > 3000 nM | – | – |
